Data: US20210382068A1, “HLA SINGLE ALLELE LINES” (priority 2018, published 2021)

Columns and labels:
[1] = test system: advanced hormone refractory prostate cancer patients; details: cited from earlier work
[2] = test system: ovarian carcinoma patients; details: cited from earlier work
[3] = more than 25 clinical trials; cited from earlier work
[4] = test system: healthy human volunteers; details: 8 subjects with one single s.c. administration versus 4 subjects receiving placebo; cited from earlier work
[5] = test system: patient tumor cell lines (MEL, GBM, ccRCC); assay: IFNγ stimulation of patient tumor cell lines, HLA-bound peptides by IP/MS; assay type: cell-based, human; details: IFNγ-matched samples, 2000 Unit/ml IFNg for 3 days

C[C@]12CC[C@@H]3c4ccc(OC(=O)N(CCCl)CCCl)cc4CC[C@H]3[C@@H]1CC[C@@H]2O [estramustine]
patients with >50% decrease in serum prostate specific antigen (PSA) [1]: 54%

Polyinosinic-Polycytidylic Acid-poly-L-lysine Carboxymethylcellulose [poly-ICLC]
generation of NY-ESO-1-specific CD4+ and CD8+ T-cell and antibody responses ([2]; 1.4 mg poly-ICLC and Montanide added, compared to OLP alone or OLP and Montanide): markedly enhanced
patients showing induction of CD4+ and CD8+ T cell, as well as antibody responses to the peptide ([2]; poly-ICLC in combination with NY-ESO-1 peptide vaccine, in addition to Montanide, phase 1): > 90%
toxicity profile [3]: relatively benign toxicity profile
differential expression of genes versus placebo [4]: up to 212 genes

B1: IFNγ: interferon gamma (Peprotech) used to stimulate cultured tumor cells (protein, UniProt P01579 24-161, looked up)
Interferon gamma: QDPYVKEAENLKKYFNAGHSDVADNGTLFLGILKNWKEESDRKIMQSQIVSFYFKLFKNFKDDQSIQKSVETIKEDMNVKFFNSNKKKRDDFEKLTNYSVTDLNVQRKAIHELIQVMAELSPAAKTGKRKRSQMLFRG
increase in peptides derived from IFNγ-response genes post stimulation [5]: 2.4-5.6%
